# How the values were obtained:
# [1] = biological target: T1, AR (L702H) in LNCaP cells (Homo sapiens, UniProt P10275, L702H/T878A); experiment: LNCaP Androgen Receptor L702H Imaging Assay (LNCaP cells engineered by CRISPR/Cas9); format: cell-based; details: LNCaP cells with AR L702H mutation, 24 h incubation; for DC50: concentration giving 50% of maximum degradation of AR (L702H) per curve fit; for Dmax: LNCaP, maximum degradation observed, normalized as % of positive control
# T1 construct: engineered to introduce the mutation L702H into the AR gene using CRISPR/Cas9; endogenous in cells; host or cells: LNCaP cells edited by CRISPR/Cas9 at the AR gene
# T1 sequence (P10275 whole entry L702H/T878A): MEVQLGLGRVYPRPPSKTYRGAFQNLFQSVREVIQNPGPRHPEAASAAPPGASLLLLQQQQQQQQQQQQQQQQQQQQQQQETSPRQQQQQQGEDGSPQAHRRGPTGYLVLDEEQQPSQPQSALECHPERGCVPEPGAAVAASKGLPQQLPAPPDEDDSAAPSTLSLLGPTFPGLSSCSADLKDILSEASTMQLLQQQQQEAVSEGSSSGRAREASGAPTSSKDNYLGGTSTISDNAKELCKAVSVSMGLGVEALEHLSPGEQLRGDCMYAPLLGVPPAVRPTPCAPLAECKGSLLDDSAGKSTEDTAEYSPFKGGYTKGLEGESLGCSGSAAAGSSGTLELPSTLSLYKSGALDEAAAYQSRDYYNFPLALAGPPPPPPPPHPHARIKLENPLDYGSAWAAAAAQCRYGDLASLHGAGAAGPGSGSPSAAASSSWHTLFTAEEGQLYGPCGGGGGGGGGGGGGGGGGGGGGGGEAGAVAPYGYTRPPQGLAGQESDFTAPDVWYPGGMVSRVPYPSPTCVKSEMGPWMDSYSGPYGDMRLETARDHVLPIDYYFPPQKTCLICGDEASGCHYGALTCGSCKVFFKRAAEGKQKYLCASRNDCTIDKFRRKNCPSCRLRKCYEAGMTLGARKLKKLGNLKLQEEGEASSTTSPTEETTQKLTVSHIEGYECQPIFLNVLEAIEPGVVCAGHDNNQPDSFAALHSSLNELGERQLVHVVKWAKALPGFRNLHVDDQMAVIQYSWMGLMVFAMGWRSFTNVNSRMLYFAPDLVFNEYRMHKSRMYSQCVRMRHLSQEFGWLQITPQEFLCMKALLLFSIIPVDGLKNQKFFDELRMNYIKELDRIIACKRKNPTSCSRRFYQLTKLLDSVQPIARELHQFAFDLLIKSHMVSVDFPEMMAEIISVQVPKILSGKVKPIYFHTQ
# T1 sequence (Q96SW2 whole entry partner): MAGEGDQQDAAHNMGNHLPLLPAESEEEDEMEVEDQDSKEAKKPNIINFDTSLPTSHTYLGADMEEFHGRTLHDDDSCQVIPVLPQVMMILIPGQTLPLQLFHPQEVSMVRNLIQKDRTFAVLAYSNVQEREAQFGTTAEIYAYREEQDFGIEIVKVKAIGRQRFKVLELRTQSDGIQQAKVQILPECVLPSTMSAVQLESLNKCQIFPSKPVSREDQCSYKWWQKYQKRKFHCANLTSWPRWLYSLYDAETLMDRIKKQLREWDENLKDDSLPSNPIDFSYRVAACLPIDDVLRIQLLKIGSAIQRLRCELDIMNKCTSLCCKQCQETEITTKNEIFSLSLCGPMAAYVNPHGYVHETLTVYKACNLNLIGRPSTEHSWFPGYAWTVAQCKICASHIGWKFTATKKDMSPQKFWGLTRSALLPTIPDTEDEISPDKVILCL
# How it was run: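 CRISPR-engineered LNCaP cells carrying AR L702H were treated 24 h at 37 °C with a 12-point compound dose response (0.3% DMSO), then fixed and immunostained for AR with DRAQ5 nuclear counterstain. Nuclear AR was quantified by imaging, normalized to positive control; DC50 and Dmax came from Hill or bell-shaped fits.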
# [2] = biological target: T2, AR (AR-full length) in LNCaP cells (Homo sapiens, UniProt P10275, T878A); experiment: LNCaP Androgen Receptor Imaging Assay (immunofluorescence of endogenous nuclear AR); format: cell-based; details: 24 h incubation; for DC50: concentration giving 50% of maximum degradation of AR per curve fit, single experiment or average of two or more; for Dmax: LNCaP, maximum degradation observed, normalized as % of positive control (prior art AR PROTAC at 3 μM)
# T2 construct: the prostate cancer cell line LNCaP (expressing AR-full length); endogenous in cells; host or cells: LNCaP
# T2 sequence (P10275 whole entry T878A): as the sequence (P10275 whole entry L702H/T878A) above, with H702L counted along it
# T2 sequence (Q96SW2 whole entry partner): as the sequence (Q96SW2 whole entry partner) above
# How it was run: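 LNCaP cells (12,000/well) received a 12-point compound dose series (0.3% DMSO) for 24 h at 37° C., then were PFA-fixed and stained for AR (AR441) and nuclei (DRAQ5). Nuclear AR was quantified by imaging, normalized to a 3 μM AR PROTAC control; DC50 and Dmax came from Hill/bell curve fits.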
Compound,DC50 [1],Dmax [1],DC50 [2],Dmax [2]
"COc1nc(N2CCN(CC3CCN(c4ccc([C@@H]5CCCN(c6ccc(Cl)c7c(C#N)c[nH]c67)C5)cc4)CC3)CC2)cc2c1C(=O)N(C1CCC(=O)NC1=O)C2 (stereo partly drawn) [Example 38, 4-Chloro-7-[(3S)-3-{4-[4-({4-[2-(2,6-dioxopiperidin-3-yl)-4-methoxy-3-oxo-2,3-dihydro-1H-pyrrolo[3,4-c]pyridin-6-yl]piperazin-1-yl}methyl)piperidin-1-yl]phenyl}piperidin-1-yl]-1H-indole-3-carbonitrile]",12 nM,95%,9 nM,97%
"COc1cc(N2CCN(CC3CCN(c4ccc(C5CCN(c6ccc(C)c7c(C#N)c[nH]c67)CC5)c(F)c4)CC3)CC2)cc2c1C(=O)N(C1CCC(=O)NC1=O)C2 (centres unmarked) [Example 41, 7-(4-{4-[4-({4-[2-(2,6-Dioxopiperidin-3-yl)-7-methoxy-1-oxo-2,3-dihydro-1H-isoindol-5-yl]piperazin-1-yl}methyl)piperidin-1-yl]-2-fluorophenyl}piperidin-1-yl)-4-methyl-1H-indole-3-carbonitrile]",29 nM,95%,17 nM,98%
"Cc1ccc(N2CCC(c3ccc(N4CCC(CN5CCC(n6ccc7c(N8CCC(=O)NC8=O)cccc76)CC5)CC4)cc3F)CC2)c2[nH]cc(C#N)c12 [Example 42, 7-(4-{4-[4-({4-[4-(2,4-Dioxo-1,3-diazinan-1-yl)-1H-indol-1-yl]piperidin-1-yl}methyl)piperidin-1-yl]-2-fluorophenyl}piperidin-1-yl)-4-methyl-1H-indole-3-carbonitrile]",62 nM,107%,29 nM,101%
"COc1cc(N2CCN(CC3CCN(c4ccc(C5CCN(c6ccc(C)c7c(C#N)c[nH]c67)CC5)c(F)c4)CC3)CC2)cc2c1C(=O)N(C1CCC(=O)NC1=O)C2=O (centres unmarked) [Example 43, 7-(4-{4-[4-({4-[2-(2,6-Dioxopiperidin-3-yl)-7-methoxy-1,3-dioxo-2,3-dihydro-1H-isoindol-5-yl]piperazin-1-yl}methyl)piperidin-1-yl]-2-fluorophenyl}piperidin-1-yl)-4-methyl-1H-indole-3-carbonitrile]",160 nM,97%,73 nM,94%
"N#Cc1c[nH]c2c(N3CCC(c4ccc(OCCCCN5CCN(c6ccc7c(c6)CN(C6CCC(=O)NC6=O)C7=O)CC5)cc4)CC3)ccc(F)c12 (centres unmarked) [Example 44, 7-{4-[4-(4-{4-[2-(2,6-Dioxopiperidin-3-yl)-1-oxo-2,3-dihydro-1H-isoindol-5-yl]piperazin-1-yl}butoxy)phenyl]piperidin-1-yl}-4-fluoro-1H-indole-3-carbonitrile]",2 nM,96%,4 nM,95%
N#Cc1c[nH]c2c(N3CCC(c4ccc(OCCCCN5CCN(c6ccc7c(c6)CN(C6CCC(=O)NC6=O)C7=O)CC5)cc4)CC3)ccc(Cl)c12 (centres unmarked) [Example 45],6 nM,95%,3 nM,96%
"N#Cc1c[nH]c2c(N3CCC(c4ccc(OCCCCN5CCC(n6ccc7c(N8CCC(=O)NC8=O)cccc76)CC5)cc4)CC3)ccc(Cl)c12 [Example 46, 4-Chloro-7-{4-[4-(4-{4-[4-(2,4-dioxo-1,3-diazinan-1-yl)-1H-indol-1-yl]piperidin-1-yl}butoxy)phenyl]piperidin-1-yl}-1H-indole-3-carbonitrile]",12 nM,98%,4 nM,101%
"COc1nc(N2CCN(CC3CCN(c4ccc([C@H]5CCCN(c6ccc(Cl)c7c(C#N)c[nH]c67)C5)cc4)CC3)CC2)cc2c1C(=O)N(C1CCC(=O)NC1=O)C2 (stereo partly drawn) [Example 47, 4-Chloro-7-[(3R)-3-{4-[4-({4-[2-(2,6-dioxopiperidin-3-yl)-4-methoxy-3-oxo-2,3-dihydro-1H-pyrrolo[3,4-c]pyridin-6-yl]piperazin-1-yl}methyl)piperidin-1-yl]phenyl}piperidin-1-yl]-1H-indole-3-carbonitrile]",7 nM,100%,7 nM,84%
"COc1cc(N2CCN(CCCCOc3ccc(C4CCN(c5ccc(C)c6c(C#N)c[nH]c56)CC4)cc3)CC2)cc2c1C(=O)N(C1CCC(=O)NC1=O)C2=O (centres unmarked) [Example 48, 7-{4-[4-(4-{4-[2-(2,6-Dioxopiperidin-3-yl)-7-methoxy-1,3-dioxo-2,3-dihydro-1H-isoindol-5-yl]piperazin-1-yl}butoxy)phenyl]piperidin-1-yl}-4-methyl-1H-indole-3-carbonitrile]",359 nM,99%,57 nM,97%
"COc1cc(N2CCN(CC3CCN(c4ccc(C5CCN(c6ccc(Cl)c7c(C#N)c[nH]c67)CC5)cc4)CC3)CC2)cc2c1C(=O)N(C1CCC(=O)NC1=O)C2=O (centres unmarked) [Example 49, 4-Chloro-7-(4-{4-[4-({4-[2-(2,6-dioxopiperidin-3-yl)-7-methoxy-1,3-dioxo-2,3-dihydro-1H-isoindol-5-yl]piperazin-1-yl}methyl)piperidin-1-yl]phenyl}piperidin-1-yl)-1H-indole-3-carbonitrile]",45 nM,97%,33 nM,91%
"Cc1ccc(N2CCC(c3ccc(OCCCCN4CCN(c5cc6c(cc5F)C(=O)N(C5CCC(=O)NC5=O)C6=O)CC4)cc3)CC2)c2[nH]cc(C#N)c12 (centres unmarked) [Example 50, 7-{4-[4-(4-{4-[2-(2,6-Dioxopiperidin-3-yl)-6-fluoro-1,3-dioxo-2,3-dihydro-1H-isoindol-5-yl]piperazin-1-yl}butoxy)phenyl]piperidin-1-yl}-4-methyl-1H-indole-3-carbonitrile]",769 nM,94%,137 nM,98%
"N#Cc1c[nH]c2c(N3CCC(c4ccc(N5CCC(CN6CCN(c7cc8c(cc7F)C(=O)N(C7CCC(=O)NC7=O)C8=O)CC6)CC5)cc4)CC3)ccc(Cl)c12 (centres unmarked) [Example 51, 4-Chloro-7-(4-{4-[4-({4-[2-(2,6-dioxopiperidin-3-yl)-6-fluoro-1,3-dioxo-2,3-dihydro-1H-isoindol-5-yl]piperazin-1-yl}methyl)piperidin-1-yl]phenyl}piperidin-1-yl)-1H-indole-3-carbonitrile]",71 nM,96%,37 nM,101%
"N#Cc1c[nH]c2c(N3CCC(c4ccc(N5CCC(CN6CCN(c7cc8c(cc7F)C(=O)N(C7CCC(=O)NC7=O)C8=O)CC6)CC5)cc4)CC3)ccc(F)c12 (centres unmarked) [Example 52, 7-(4-{4-[4-({4-[2-(2,6-Dioxopiperidin-3-yl)-6-fluoro-1,3-dioxo-2,3-dihydro-1H-isoindol-5-yl]piperazin-1-yl}methyl)piperidin-1-yl]phenyl}piperidin-1-yl)-4-fluoro-1H-indole-3-carbonitrile]",52 nM,97%,62 nM,93%
"N#Cc1c[nH]c2c(N3CCC[C@@H](c4ccc(N5CCC(CN6CCN(c7cc8c(cc7F)C(=O)N(C7CCC(=O)NC7=O)C8=O)CC6)CC5)cc4)C3)ccc(Cl)c12 (stereo partly drawn) [Example 53, 4-Chloro-7-[(3S)-3-{4-[4-({4-[2-(2,6-dioxopiperidin-3-yl)-6-fluoro-1,3-dioxo-2,3-dihydro-1H-isoindol-5-yl]piperazin-1-yl}methyl)piperidin-1-yl]phenyl}piperidin-1-yl]-1H-indole-3-carbonitrile]",78 nM,103%,30 nM,99%
"N#Cc1c[nH]c2c(N3CCC[C@H](c4ccc(N5CCC(CN6CCN(c7cc8c(cc7F)C(=O)N(C7CCC(=O)NC7=O)C8=O)CC6)CC5)cc4)C3)ccc(Cl)c12 (stereo partly drawn) [Example 54, 4-Chloro-7-[(3R)-3-{4-[4-({4-[2-(2,6-dioxopiperidin-3-yl)-6-fluoro-1,3-dioxo-2,3-dihydro-1H-isoindol-5-yl]piperazin-1-yl}methyl)piperidin-1-yl]phenyl}piperidin-1-yl]-1H-indole-3-carbonitrile]",52 nM,97%,36 nM,77%
"N#Cc1c[nH]c2c(N3CCC(c4ccc(N5CCC(CN6CCN(c7ccc8c(c7)C(=O)N(C7CCC(=O)NC7=O)C8=O)CC6)CC5)cc4)CC3)ccc(Cl)c12 (centres unmarked) [Example 55, 4-Chloro-7-(4-{4-[4-({4-[2-(2,6-dioxopiperidin-3-yl)-1,3-dioxo-2,3-dihydro-1H-isoindol-5-yl]piperazin-1-yl}methyl)piperidin-1-yl]phenyl}piperidin-1-yl)-1H-indole-3-carbonitrile]",34 nM,103%,33 nM,99%
"Cc1ccc(N2CCC(c3ccc(OCCCCN4CCN(c5ccc6c(c5)C(=O)N(C5CCC(=O)NC5=O)C6=O)CC4)cc3)CC2)c2[nH]cc(C#N)c12 (centres unmarked) [Example 56, 7-{4-[4-(4-{4-[2-(2,6-Dioxopiperidin-3-yl)-1,3-dioxo-2,3-dihydro-1H-isoindol-5-yl]piperazin-1-yl}butoxy)phenyl]piperidin-1-yl}-4-methyl-1H-indole-3-carbonitrile]",357 nM,94%,61 nM,101%
